# Measurements published in the supplement of paper PMC10307832.
# What was measured:
# Test in all cases: relative viability (nuclei count vs DMSO), 5 days (fraction); higher = more cells survive
# CX-5461 + Decitabine = compound: Cc1cnc(CNC(=O)c2c(=O)c3ccc(N4CCCN(C)CC4)nc3n3c2sc2ccccc23)cn1 [CX-5461] + Nc1ncn([C@H]2C[C@H](O)[C@@H](CO)O2)c(=O)n1 [Decitabine] (partner 2 µM)
# In short: (§1)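 Nuclei were stained with Hoechst during a one-step fixation (final 0.05% Triton X-100, 1% formaldehyde, 1 ug/ml Hoechst) carried out 5 days after dosing, then counted on 4× images. The cells, lung cancer lines in 1536-well plates, had been dosed by pin tool the day after seeding with one drug alone or a fixed anchor-drug dose plus five library-drug doses (not always all listed) in √10 steps. Relative viability is the nuclei count in treated wells divided by that in vehicle wells, and each value is the median of duplicate plates.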
# CX-5461 + Luminespib = compound: Cc1cnc(CNC(=O)c2c(=O)c3ccc(N4CCCN(C)CC4)nc3n3c2sc2ccccc23)cn1 [CX-5461] + CCNC(=O)c1noc(-c2cc(C(C)C)c(O)cc2O)c1-c1ccc(CN2CCOCC2)cc1 [Luminespib] (partner 0.01 µM)
# In short: as §1
# CX-5461 + Phenformin = compound: Cc1cnc(CNC(=O)c2c(=O)c3ccc(N4CCCN(C)CC4)nc3n3c2sc2ccccc23)cn1 [CX-5461] + N=C(N)NC(=N)NCCc1ccccc1 [Phenformin] (partner 250 µM)
# In short: as §1
# IMD-0354 + Linsitinib = compound: O=C(Nc1cc(C(F)(F)F)cc(C(F)(F)F)c1)c1cc(Cl)ccc1O [IMD-0354] + C[C@]1(O)C[C@@H](c2nc(-c3ccc4ccc(-c5ccccc5)nc4c3)c3c(N)nccn32)C1 [Linsitinib] (partner 1 µM)
# In short: as §1
Cell Line,relative viability (CX-5461 + Decitabine; first compound 0.01 µM),relative viability (CX-5461 + Decitabine; first compound 0.03162 µM),relative viability (CX-5461 + Decitabine; first compound 0.1 µM),relative viability (CX-5461 + Decitabine; first compound 0.3162 µM),relative viability (CX-5461 + Decitabine; first compound 1 µM),relative viability (CX-5461 + Luminespib; first compound 0.01 µM),relative viability (CX-5461 + Luminespib; first compound 0.03162 µM),relative viability (CX-5461 + Luminespib; first compound 0.1 µM),relative viability (CX-5461 + Luminespib; first compound 0.3162 µM),relative viability (CX-5461 + Luminespib; first compound 1 µM),relative viability (CX-5461 + Phenformin; first compound 0.01 µM),relative viability (CX-5461 + Phenformin; first compound 0.03162 µM),relative viability (CX-5461 + Phenformin; first compound 0.1 µM),relative viability (CX-5461 + Phenformin; first compound 0.3162 µM),relative viability (CX-5461 + Phenformin; first compound 1 µM),relative viability (IMD-0354 + Linsitinib; first compound 0.04 µM),relative viability (IMD-0354 + Linsitinib; first compound 0.1265 µM),relative viability (IMD-0354 + Linsitinib; first compound 1.265 µM),relative viability (IMD-0354 + Linsitinib; first compound 4 µM),relative viability (IMD-0354 + Linsitinib; first compound 0.4 µM)
NCI-H2342,0.686,0.699,0.734,0.691,0.586,0.778,0.653,0.657,0.761,0.693,0.645,0.53,0.535,0.675,0.586,–,–,–,–,–
LK-2,0.329,0.278,0.302,0.162,0.279,0.173,0.214,0.199,–,0.212,0.611,0.443,0.386,–,0.111,0.527,0.505,0.863,0.19,–
SK-LU-1,0.722,0.597,0.709,0.754,0.455,0.22,0.185,0.204,–,0.166,0.615,0.545,0.397,–,0.229,1.41,0.863,0.24,0.264,0.621
HCC-366,0.37,0.349,0.293,0.347,0.327,–,–,–,–,–,0.657,0.657,0.627,0.604,0.253,0.947,0.85,0.365,0.0421,0.221
201T,0.861,0.849,0.885,0.814,0.834,1.05,1.04,1.05,1.06,1.11,0.468,0.431,0.464,0.441,0.388,1.13,1.01,1.06,0.385,1.02
HCC-827,0.339,0.337,0.342,0.282,0.3,0.875,0.69,0.921,0.588,0.791,0.406,0.426,0.444,0.406,0.359,0.898,0.947,0.606,0.282,0.82
NCI-H1703,–,–,–,–,–,–,–,–,–,–,–,–,–,–,–,1.38,0.583,0.125,0.141,0.888
Calu-6,–,–,–,–,–,–,–,–,–,–,–,–,–,–,–,0.92,0.859,0.0995,0.0777,0.862
NCI-H2170,0.471,0.454,0.493,0.504,0.446,0.636,0.54,1.02,0.771,0.554,0.44,0.418,0.407,0.363,0.322,–,–,–,–,–
HCC-78,0.678,0.678,0.595,0.694,0.565,–,–,–,–,–,0.729,0.66,0.764,0.783,0.55,0.471,0.495,0.486,0.276,0.421
NCI-H1299,–,–,–,–,–,–,–,–,–,–,–,–,–,–,–,0.933,0.895,0.168,0.158,0.839
NCI-H1650,0.395,0.441,0.344,0.378,0.207,0.181,0.161,0.211,0.215,0.193,0.409,0.275,0.191,0.33,0.148,–,–,–,–,–
ChaGo-K-1,0.554,0.485,0.547,0.543,0.431,0.595,0.626,0.548,0.668,0.462,0.512,0.527,0.474,0.299,0.268,–,–,–,–,–
NCI-H2228,–,–,–,–,–,0.148,0.147,0.196,0.172,0.101,0.327,0.204,0.184,0.26,0.0912,0.563,0.795,0.167,0.409,0.544
NCI-H1648,0.493,0.508,0.488,0.44,0.474,–,–,–,–,–,–,–,–,–,–,–,–,–,–,–
NCI-H1563,–,–,–,–,–,0.47,0.595,0.438,0.565,0.498,0.663,0.677,0.531,0.627,0.457,1.25,1.06,0.784,0.457,1.11
A549,0.299,0.387,0.249,0.269,0.0566,–,–,–,–,–,0.155,0.165,0.104,0.0393,0.0272,0.782,0.581,0.439,0.0949,0.264
NCI-H522,0.763,0.641,0.671,–,0.678,1.49,1.22,1.98,1.05,1.08,0.653,0.614,0.654,–,0.593,–,–,–,–,–
NCI-H1623,–,–,–,–,–,0.528,0.542,0.515,0.536,0.51,0.556,0.588,0.556,0.616,0.593,–,–,–,–,–
SW 900,0.631,0.448,–,0.457,0.387,0.171,0.162,0.19,0.18,0.176,0.656,0.641,0.743,0.532,0.209,–,–,–,–,–
IA-LM,–,–,–,–,–,–,–,–,–,–,–,–,–,–,–,0.653,0.486,0.0945,0.16,0.745
CAL-12T,–,–,–,–,–,0.302,0.534,0.31,1.51,0.24,0.643,0.653,0.328,0.531,0.35,0.771,0.754,0.152,0.164,0.895
EBC-1,–,–,–,–,–,–,–,–,–,–,–,–,–,–,–,0.845,0.703,0.113,0.164,0.741
